# From US5587479A, “Basic derivatives of glutamic acid and aspartic acid as gastrin or cholecystokinin antagonists” (priority 1992, dated 1996)
# Read-outs that look alike come from different tables or passages of the source.
# How the values were obtained:
# [1] = molecular target: T1, central CCK-B receptors (guinea pig cortical membrane) (Cavia porcellus, UniProt H0VZC5); experiment: Inhibition of binding of (3-H)[N-methyl-N-leucine]CCK-8 to guinea pig cortical membranes (anti-CCK-B)
# T1 construct: Cerebral cortices of white male guinea pigs were therefore used; from tissue; host or cells: guinea pig cerebral cortex membranes
# T1 sequence (H0VZC5 1-426): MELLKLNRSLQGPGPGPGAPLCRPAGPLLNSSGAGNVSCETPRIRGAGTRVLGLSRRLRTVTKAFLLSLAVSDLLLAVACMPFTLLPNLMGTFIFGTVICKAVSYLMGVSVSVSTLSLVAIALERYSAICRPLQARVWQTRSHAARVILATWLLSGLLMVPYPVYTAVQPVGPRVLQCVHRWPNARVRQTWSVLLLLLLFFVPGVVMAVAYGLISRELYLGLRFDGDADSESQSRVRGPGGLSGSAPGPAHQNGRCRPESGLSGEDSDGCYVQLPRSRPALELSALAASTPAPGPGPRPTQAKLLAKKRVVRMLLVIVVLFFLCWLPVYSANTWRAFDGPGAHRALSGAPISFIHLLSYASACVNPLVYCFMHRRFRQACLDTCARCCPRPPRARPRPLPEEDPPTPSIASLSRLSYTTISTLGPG
# Description: Cerebral cortices of white male guinea pigs were therefore used, according to the method mentioned above, so as to obtain a membrane content/ml corresponding to about 300 mcg of proteins/mi. The membranes were incubated together with the radioactive tracer and the compounds under test for 150 minutes at 25° C. After the supernatant liquid had been discarded, the radioactivity associated with the pellet was determined with a liquid scintillator.
# guinea-pig ureters = experiment: Antispastic activity in vitro: spontaneous motility of guinea-pig ureters; conditions: for IC50: Cavia porcellus
# Text: The isotonic contractions were detected by means of a force transducer and recorded. […] A given concentration of the product under test was then introduced into the bath and left in contact with the prepared specimen for five minutes, after which the ureter was washed until its own spontaneous activity was re-established.
# [2] = system: acid secretion induced by pentagastrin; experiment: Activity against gastric secretion stimulated with pentagastrin in the anaesthetized rat; assay type: in vivo; conditions: for ED50: iv, anaesthetized rat, pentagastrin 30 mcg/kg/h, I.V. bolus, read-out: Antagonistic activity (ID50) towards acid secretion induced by pentagastrin
# Description: The investigation of the activity against gastric secretion performed by the compounds of the invention by means of an antigastrin mechanism was carried out in vivo in anaesthetized rats with the use of male animals weighing about 200 g. Gastric secretion was stimulated with pentagastrin and the method of K. S. Lai [Gut 5, (1964), 327-341] was used, slightly modified.
# After tracheotomy, the oesophagus and duodenum were cannulated. Perfusion was carried out with a tepid solution (37° C.) of 0.25 mM NaOH which was passed through the stomach by means of a peristaltic pump at a constant flow rate of 1 ml/minute. After stabilization for 20 minutes, the stimulant, dissolved in a physiological solution, was perfused for 120 minutes at a dose of 30 mcg/kg/h in a volume of 0.95 ml/hour. After perfusion for 60 minutes (the basal simulation), the product under test was administered intravenously (I.V.) as a bolus and the perfusion of the stimulant was continued for a further 60 minutes. The acid secretion was recorded continuously as a function of time.
# The activity of the product was evaluated as the percentage reduction in the secreted acidity after the administration of the product compared with the basal acidity measured during the first 60 minutes of collection in the presence of pentagastrin alone.
# mouse = experiment: Anxiolytic activity in the mouse, Black and White Box test; assay type: in vivo; conditions: for TOTAL MOV.: five minutes
# Description: In order to confirm the hypothesis that the potent activity of some of the compounds of the invention against central CCK-B may be correlated with a possible anxiolytic activity, this potential activity was evaluated in the mouse with the use of the "Black and White Box test". This experimental model, which was carried out according to Costall et al. [Pharm. Biochem. Behav. 32 (1989), 777-785] used a box with dimensions of 45×21×21 (h) cm. divided into two compartments which communicated with each other by means of a 13×5 cm hole. The smaller compartment (1/3 of the total area) had black walls, whereas the larger had transparent walls and was illuminated by a lamp which was placed 20 cm above the box and supplied light at 20 W. Under the floor was an activity meter which registered the movements performed by the animal in the individual compartments. The experiment was started by placing the animal in the centre of the illuminated box; as well at its movements, the time which the animal spent in the dark and in the light and the number of times it moved between the 2 compartments were recorded for five minutes. In general, a control animal tended preferably to stay in the dark compartment where it felt better protected from an unusual enviromental situation which put it in a state of anxiety. In this experimental model ( see the reference cited above), a compound having anxiolytic activity decreased the % of movements into the dark in comparison with the total movements, increased the movements between the two light-dark compartments, and increased the % of the total time time spent in the light. The results obtained are given in Table 5 below in which the activities obtained with the compound 1 (the rectus series ) and its enantiomer 2 (sinister) tested in comparison with diazepam and the CCK-B antagonist L365-260.
# [3] = molecular target: T2, cholecystokinin receptors of the pancreatic cells of the rat (CCK-A) (Rattus norvegicus, UniProt P30551); experiment: Inhibition of the binding of [125-I]-[Bolton-Hunter]-CCK-8 to rat pancreatic cells (anti-CCK-A)
# T2 construct: The pancreatic cells of the rat were prepared as described by Makovec et al; from tissue; host or cells: rat pancreatic cells
# T2 sequence (P30551 1-444): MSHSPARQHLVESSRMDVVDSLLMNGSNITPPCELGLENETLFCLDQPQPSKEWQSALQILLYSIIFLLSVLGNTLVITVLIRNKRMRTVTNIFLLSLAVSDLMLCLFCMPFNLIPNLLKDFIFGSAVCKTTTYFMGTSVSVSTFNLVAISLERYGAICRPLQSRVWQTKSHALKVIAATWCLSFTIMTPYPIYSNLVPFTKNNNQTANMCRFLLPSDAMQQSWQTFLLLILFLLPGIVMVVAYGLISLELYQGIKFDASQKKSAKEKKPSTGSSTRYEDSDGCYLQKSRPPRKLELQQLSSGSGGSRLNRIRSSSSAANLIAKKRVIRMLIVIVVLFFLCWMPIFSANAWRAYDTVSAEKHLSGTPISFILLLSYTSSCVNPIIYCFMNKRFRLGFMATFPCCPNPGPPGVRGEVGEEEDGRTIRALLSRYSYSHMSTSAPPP
# Description: The pancreatic cells of the rat were prepared as described by Makovec et al. (reference cited) so as to produce about 5×10^6 cells/mi. The cells were then incubated together with the radioactive tracer and the compounds under test for 30 minutes at 37° C.
# After the supernatant liquid had been discarded, the radioactivity associated with the pellet was determined with a gamma counter (80% efficiency).
# [4] = IC50, inhibition of binding of (3-H)[N-methyl-N-leucine]CCK-8 to the guinea pig cortical membrane, 150 minutes at 25° C.
# [5] = force of the contractions, five minutes contact, 37° C., read-out: IC50 (force), inhibition of the spontaneous motility of guinea-pig ureters in vitro
# [6] = frequency of the contractions, five minutes contact, 37° C., read-out: IC50 (frequency), inhibition of the spontaneous motility of guinea-pig ureters in vitro
# [7] = read-out: IC50 (force), inhibition of the spontaneous motility of guinea-pig ureters in vitro
# [8] = read-out: IC50 (frequency), inhibition of the spontaneous motility of guinea-pig ureters in vitro
"IC50 [1, 4]",IC50 (guinea-pig ureters; [5]),IC50 (guinea-pig ureters; [6]),SMILES,ED50 [2],also measured
65.4 µM,5 µg/mL,4 µg/mL,"CCCCCN(CCCCC)C(=O)C(CCC(=O)NCCN1CCOCC1)NC(=O)c1ccc(C)c(C)c1 (racemic) [Compound 44, (RS) 1-[4'-(ethylenamino)morpholinyl]-1-oxo-4-[(3,4-dimethylbenzoyl)-amino]-5-(dipentylamino) -5-oxopentane]",–,activity on guinea-pig ureters (in words) (guinea-pig ureters): extremely active
2.4 µM,–,–,"O=C(O)CC[C@@H](NC(=O)c1cc(Cl)cc(Cl)c1)C(=O)N1CCC2(CCCC2)CC1 [CR 2194, reference compound]",11 mg/kg,–
> 100 µM,25 µg/mL,20 µg/mL,CN1CCN(C(=O)CC[C@H](NC(=O)c2cc(Cl)cc(Cl)c2)C(=O)N2CCC3(CCCC3)CC2)CC1 [Compound 2],24.8 mg/kg,"IC50 ([1]; read-out: IC50, binding to guinea-pig cortical membranes): > 1 µM; LIGHT TIME (%) TOTAL TIME (mouse; 0.1 mg/kg IP): 28.3%; LIGHT TIME (%) TOTAL TIME: % EFF.VS CONTROL (mouse; 0.1 mg/kg IP): 0%; LIGHT-DARK MOVEMENTS (mouse; 0.1 mg/kg IP): 13.2; LIGHT-DARK MOVEMENTS: % EFF. VS CONTROL (mouse; 0.1 mg/kg IP): 0%; MOV. DARK (%) TOTAL MOV. (mouse; 0.1 mg/kg IP): 50%; MOV. DARK (%) TOTAL MOV.: % EFF. VS CONTROL (mouse; 0.1 mg/kg IP): -4%; TOTAL MOV. (mouse; 0.1 mg/kg IP): 477; LIGHT TIME (%) TOTAL TIME (mouse; 1 mg/kg IP): 27.5%; LIGHT TIME (%) TOTAL TIME: % EFF.VS CONTROL (mouse; 1 mg/kg IP): 0%; LIGHT-DARK MOVEMENTS (mouse; 1 mg/kg IP): 12.8; LIGHT-DARK MOVEMENTS: % EFF. VS CONTROL (mouse; 1 mg/kg IP): 0%; MOV. DARK (%) TOTAL MOV. (mouse; 1 mg/kg IP): 50%; MOV. DARK (%) TOTAL MOV.: % EFF. VS CONTROL (mouse; 1 mg/kg IP): -4%; TOTAL MOV. (mouse; 1 mg/kg IP): 462; anxiolytic activity in the Black and White Box test (in words) (mouse; IP): completely inactive"
2.8 µM,4.5 µg/mL,4.3 µg/mL,O=C(CC[C@@H](NC(=O)c1cc(Cl)cc(Cl)c1)C(=O)N1CCC2(CCCC2)CC1)NCCN1CCOCC1 [Compound 3],12.8 mg/kg,activity on guinea-pig ureters (in words) (guinea-pig ureters): extremely active
12.5 µM,–,121 µg/mL,CN(C)CCNC(=O)CC[C@@H](NC(=O)c1cc(Cl)cc(Cl)c1)C(=O)N1CCC2(CCCC2)CC1 [Compound 4],–,–
3.3 µM,–,–,CN1CCN(CCNC(=O)CC[C@@H](NC(=O)c2cc(Cl)cc(Cl)c2)C(=O)N2CCC3(CCCC3)CC2)CC1 [Compound 6],–,–
6.5 µM,–,–,CN1CCN(C(=O)CC[C@@H](NC(=O)c2cccc(Cl)c2)C(=O)N2CCC3(CCCC3)CC2)CC1 [Compound 7],–,–
–,–,–,CN1CCN(C(=O)CC[C@@H](NC(=O)c2cc(Cl)cc(Cl)c2)C(=O)N2CCC3(CCCCC3)CC2)CC1 [Compound 13],8.5 mg/kg,–
> 100 µM,–,–,CN1CCN(C(=O)CC[C@@H](NC(=O)c2cccc(Cl)c2)C(=O)NCCC(C)(C)C)CC1 [Compound 23],25 mg/kg,–
81.3 µM,2 µg/mL,1.5 µg/mL,CCCCCN(CCCCC)C(=O)C(CCC(=O)NCCN1CCOCC1)NC(=O)c1ccc(C(C)C)cc1 (centres unmarked) [Compound 36],–,activity on guinea-pig ureters (in words) (guinea-pig ureters): extremely active
–,12 µg/mL,15 µg/mL,CCCCCN(CCCCC)C(=O)C(CCC(=O)NCCCN1CCOCC1)NC(=O)c1ccc(C)c(C)c1 (centres unmarked) [Compound 47],–,–
–,100 µg/mL,100 µg/mL,CCCCCN(CCCCC)C(=O)C(CCC(=O)NCCCN1CCN(Cc2ccccc2)CC1)NC(=O)c1ccc(C)c(C)c1 (centres unmarked) [Compound 51],–,–
> 100 µM,11 µg/mL,18 µg/mL,CCCCCN(CCCCC)C(=O)C(CCC(=O)NCCN1CCCCC1)NC(=O)c1ccc(C)c(C)c1 (centres unmarked) [Compound 55],–,–
–,14 µg/mL,19 µg/mL,CCCCCN(CCCCC)C(=O)C(CCC(=O)NCC1CCCN1CC)NC(=O)c1ccc(C)c(C)c1 (centres unmarked) [Compound 58],–,–
–,–,–,CCCCCN(CCCCC)C(=O)[C@@H](CCC(=O)NCCN1CCOCC1)NC(=O)c1cnc2ccccc2c1 [Compound 59],–,"IC50 ([3]; 30 minutes at 37° C., read-out: IC50, inhibition of the binding of (125-I)(B-H)-CCK-8 to the pancreatic cells of the rat): 1.2 µM"
–,59 µg/mL,–,CCCCCN(CCCOC)C(=O)C(CCC(=O)NCCN1CCOCC1)NC(=O)c1ccc(C)c(C)c1 (centres unmarked) [Compound 64],–,–
–,–,–,CCC(C)(CC)CCNC(=O)C(CC(=O)NCCN1CCOCC1)NC(=O)c1cccc(Cl)c1 (centres unmarked) [Compound 68],31 mg/kg,–
–,–,–,CN1CCN(C(=O)C[C@@H](NC(=O)c2cc(Cl)cc(Cl)c2)C(=O)N2CCC3(CCCC3)CC2)CC1 [Compound 70],18.9 mg/kg,–
–,29 µg/mL,–,"Cc1c(-c2ccccc2)oc2c(C(=O)OCCN3CCCCC3)cccc2c1=O [Flavoxate, reference compound]",–,–
–,–,–,"COc1ccc(Cc2nccc3cc(OC)c(OC)cc23)cc1OC [Papaverine, reference compound]",–,IC50 (guinea-pig ureters; [7]): 23 µg/mL; IC50 (guinea-pig ureters; [8]): 27 µg/mL
9.2 µM,–,–,"CCCCCN(CCCCC)C(=O)[C@@H](CCC(=O)O)NC(=O)c1ccc(Cl)c(Cl)c1 [R-lorglumide, reference compound]",–,times more active than the compound 59 (CCK-A binding) ([3]; rat pancreatic cells): about 25 times
–,–,–,"COc1ccc(CCN(C)CCCC(C#N)(c2ccc(OC)c(OC)c2)C(C)C)cc1OC (centres unmarked) [Verapamil, reference compound]",–,IC50 (guinea-pig ureters; [7]): 3 µg/mL; IC50 (guinea-pig ureters; [8]): 2.2 µg/mL
–,–,–,"CCCCCN(CCCCC)C(=O)C(CCC(=O)O)NC(=O)c1ccc(Cl)c(Cl)c1 (centres unmarked) [lorglumide, reference compound]",–,"antigastrin activity (in words) ([2]; rat, up to a dose of 100 mg/kg): completely inactive"
–,–,–,"CSCC[C@H](NC(=O)[C@H](Cc1c[nH]c2ccccc12)NC(=O)CCNC(=O)OC(C)(C)C)C(=O)N[C@@H](CC(=O)O)C(=O)N[C@@H](Cc1ccccc1)C(N)=O [pentagastrin, reference compound]",–,IC50 [1]: 0.003 µM
–,–,–,"CCCN(CCC)C(=O)C(CCC(=O)O)NC(=O)c1ccccc1 (centres unmarked) [proglumide, reference compound]",500 mg/kg,–
